2 molecules from ChEMBL document CHEMBL4196183, “Discovery of New Allosteric Modulators of the Urotensinergic System through Substitution of the Urotensin II-Related Peptide (URP) Phenylalanine Residue” (J Med Chem, 2018) can be followed below.

Assay [1] has as its target T1, Urotensin-2 receptor (Rattus norvegicus) (UniProt P49684).
T1 sequence (whole entry): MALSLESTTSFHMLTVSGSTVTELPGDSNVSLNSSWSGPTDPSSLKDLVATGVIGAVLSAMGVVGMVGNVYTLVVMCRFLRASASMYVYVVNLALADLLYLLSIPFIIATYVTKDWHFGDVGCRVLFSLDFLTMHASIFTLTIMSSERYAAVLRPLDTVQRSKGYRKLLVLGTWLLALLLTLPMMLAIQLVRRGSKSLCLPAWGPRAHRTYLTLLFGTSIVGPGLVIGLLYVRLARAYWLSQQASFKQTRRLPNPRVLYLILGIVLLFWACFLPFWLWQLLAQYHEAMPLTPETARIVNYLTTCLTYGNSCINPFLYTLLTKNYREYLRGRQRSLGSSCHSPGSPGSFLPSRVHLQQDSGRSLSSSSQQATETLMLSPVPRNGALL
As to the kind of experiment: Agonist activity at UT receptor in Sprague-Dawley rat thoracic aortic ring assessed as induction of contraction relative to KCl-induced contraction. The assay is classed as functional.

Assay [2] concerns the target T2, Urotensin-2 receptor (Homo sapiens) (UniProt Q9UKP6).
T2 sequence (whole entry): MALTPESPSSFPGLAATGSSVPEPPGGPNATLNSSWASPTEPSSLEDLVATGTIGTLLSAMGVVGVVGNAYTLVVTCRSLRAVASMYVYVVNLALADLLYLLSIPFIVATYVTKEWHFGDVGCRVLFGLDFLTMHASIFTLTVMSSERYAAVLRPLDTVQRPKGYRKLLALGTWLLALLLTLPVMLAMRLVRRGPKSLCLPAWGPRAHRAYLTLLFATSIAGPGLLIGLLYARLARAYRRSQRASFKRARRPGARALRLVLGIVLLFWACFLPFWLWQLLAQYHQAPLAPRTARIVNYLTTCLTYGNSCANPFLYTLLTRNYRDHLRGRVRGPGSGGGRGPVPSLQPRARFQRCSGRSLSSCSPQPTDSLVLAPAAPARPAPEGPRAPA
As to the kind of experiment: Bias factor, ratio of deltalog(Tau/KA) for agonist activity at human UT receptor expressed in HEK293 cells co-expressing G12-polycistronic BRET biosensor assessed as induction of G12 activation by luminescence detection based BRET assay to deltalog(Tau/KA) for agonist activity at human UT receptor expressed in HEK293 cells co-expressing beta-arrestin1-polycistronic BRET biosensor assessed as induction of beta-arrestin1 recruitment by luminescence detection based BRET assay. The assay is classed as functional, cell-based.

The target in assay [3] is T2, Urotensin-2 receptor (Homo sapiens). As to the kind of experiment: Selectivity index, change in deltalog(Tau/KA) for agonist activity at human UT receptor expressed in HEK293 cells co-expressing Gq-polycistronic BRET biosensor assessed as induction of Gq activation by luminescence detection based BRET assay to deltalog(Tau/KA) for agonist activity at human UT receptor expressed in HEK293 cells co-expressing beta-arrestin1-polycistronic BRET biosensor assessed as induction of beta-arrestin1 recruitment by luminescence detection based BRET assay. The assay is classed as functional, cell-based.

Assay [4] shares this target. Put plainly: Bias factor, ratio of deltalog(Tau/KA) for agonist activity at human UT receptor expressed in HEK293 cells co-expressing G12-polycistronic BRET biosensor assessed as induction of G12 activation by luminescence detection based BRET assay to deltalog(Tau/KA) for agonist activity at human UT receptor expressed in HEK293 cells co-expressing Gq-polycistronic BRET biosensor assessed as induction of Gq activation by luminescence detection based BRET assay. Type of assay: functional, cell-based.

In a further assay the target is T3, Urotensin-2 receptor (Homo sapiens, UniProt Q9UKP6).
T3 sequence (Q9UKP6 whole entry): T2 sequence (whole entry)
Put plainly: Agonist activity at human UT receptor expressed in HEK293 cells co-expressing Gq-polycistronic BRET biosensor assessed as induction of Gq activation measured for 5 mins by luminescence detection based BRET assay. Type of assay: functional, cell-based.

The target of assay [5] is T1, Urotensin-2 receptor (Rattus norvegicus). As to the kind of experiment: Antagonist activity at UT receptor in Sprague-Dawley rat thoracic aortic ring assessed as reduction in URP-induced contraction by measuring pEC50 for […] at 1 uM pre-incubated for 30 mins […] (reference value: 8.16 +/- 0.08). Type of assay: functional.

The target is the same in assay [6]. As to the kind of experiment: Antagonist activity at UT receptor in Sprague-Dawley rat thoracic aortic ring assessed as reduction in URP-induced contraction by measuring Emax for human urotensin-2-induced contraction at 3 x 10^-9M pre-incubated for 30 mins before urotensin-2 stimulation relative to KCl-induced contraction (reference value: 107 +/- 3%). Type of assay: functional.

The target is the same in assay [7]. As to the kind of experiment: Antagonist activity at UT receptor in Sprague-Dawley rat thoracic aortic ring assessed as reduction in urotensin-2-induced contraction by measuring Emax for human urotensin-2-induced contraction at 1 x 10^-8M uM pre-incubated for 30 mins before urotensin-2 stimulation (reference value: 101 +/- 4%). The assay is classed as functional.

Assay [8] has the same target. Put plainly: Antagonist activity at UT receptor in Sprague-Dawley rat thoracic aortic ring assessed as reduction in URP-induced contraction by measuring Emax for human urotensin-2-induced contraction at 1 x 10^-7M pre-incubated for 30 mins before urotensin-2 stimulation relative to KCl-induced contraction (reference value: 107 +/- 3%). The assay is classed as functional.

Assay [9] shares this target. Put plainly: Antagonist activity at UT receptor in Sprague-Dawley rat thoracic aortic ring assessed as reduction in urotensin-2-induced contraction by measuring Emax for human urotensin-2-induced contraction at 1 x 10^-7M uM pre-incubated for 30 mins before urotensin-2 stimulation (reference value: 101 +/- 4%). The assay is classed as functional.
Assay [10] has the same target. As to the kind of experiment: Antagonist activity at UT receptor in Sprague-Dawley rat thoracic aortic ring assessed as reduction in URP-induced contraction by measuring Emax for human urotensin-2-induced contraction at 1 x 10^-8M pre-incubated for 30 mins before urotensin-2 stimulation relative to KCl-induced contraction (reference value: 107 +/- 3%). Type of assay: functional.

Assay [11] has the same target. As to the kind of experiment: Antagonist activity at UT receptor in Sprague-Dawley rat thoracic aortic ring assessed as reduction in URP-induced contraction by measuring Emax for human urotensin-2-induced contraction at 3 x 10^-10M pre-incubated for 30 mins before urotensin-2 stimulation relative to KCl-induced contraction (reference value: 107 +/- 3%). Type of assay: functional.

SMILES strings stand for the structures. The source made the active and inactive calls. The calls are words filed in the database; no cut-off is given here.

For the molecule `CC(C)[C@H](NC(=O)[C@@H]1CSSC[C@H](NC(=O)[C@H](C)N)C(=O)N[C@@H](Cc2ccc(C#Cc3ccccc3)cc2)C(=O)N[C@@H](Cc2c[nH]c3ccccc23)C(=O)N[C@@H](CCCCN)C(=O)N[C@@H](Cc2ccc(O)cc2)C(=O)N1)C(=O)O`, in assay [1], the Emax was 28%. Moreover, the fold change (FC) in [2] was found to be 1.6; in assay [4] it was 1.8. In [3], the selectivity index, deltadeltalog(Tau/KA) is -0.03. The EC50 on Urotensin-2 receptor was 27.5 nM. Also, the pEC50 result in assay [5] was “Active”.
For the molecule `CC(C)[C@H](NC(=O)[C@@H]1CSSC[C@H](NC(=O)[C@H](C)N)C(=O)N[C@@H](Cc2ccc(-c3ccccc3)cc2)C(=O)N[C@@H](Cc2c[nH]c3ccccc23)C(=O)N[C@@H](CCCCN)C(=O)N[C@@H](Cc2ccc(O)cc2)C(=O)N1)C(=O)O`, the Emax in assay [1] was 25%; in assay [6], 94%; in [7], 78%; in [8], 60%; in [9] it was 58%; in assay [10] it was 75%. Moreover, the Emax in [11] amounted to 104%. For the same molecule, the fold change (FC) was determined as 3.9 in assay [2] and 1.4 in [4]. The selectivity index, deltadeltalog(Tau/KA) in [3] came to 0.45. In addition, the EC50 on Urotensin-2 receptor is 15.1 nM. For the same molecule, the pEC50 result in [5] is “Active”.
